The values below come from patent US5606037A, “Processes antineoplastic heteronaphthoquinones” (BioChem Pharma Inc., priority 1995, dated 1997).

Counter-ions that a name gives are not always drawn. Where only a bound is given, the exact number is not on record here.

The test system of assay [1] is SKOV3 (Ovarian adenocarcinoma). Put plainly: In vitro cytotoxicity, microculture tetrazolium (MTT) assay, SKOV3. Type of assay: cell-based, Human. To be noted: for IC50: SKOV3 ovarian adenocarcinoma, 48 h with compound, further 48 h, MTT, Table 1. The procedure, abridged:
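Cells plated overnight, then exposed to compound (1:3 dilutions, 100 μM to 1.7 nM, quadruplicate) 48 h at 37 °C, followed by 48 h in fresh medium. MTT 4 h, formazan extracted in DMSO/Sorensen's buffer pH 10.5, A570; four-parameter logistic fit on 0–100% survival scale.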

The subject of assay [2] is T47D (Ductal carcinoma of breast). Kind of assay: In vitro cytotoxicity, microculture tetrazolium (MTT) assay, T47D. Format: cell-based, Human. To be noted: 48 h with compound, further 48 h, Table 1. An outline of the steps: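 Adherent cells (1,500-4,000/well) were exposed to compound in 1:3 dilutions from 100 μM to 1.7 nM, in quadruplicate, for 48 h at 37° C, followed by 48 h in fresh medium. MTT formazan was read at 570 nm, and data were fitted by four-parameter logistic on a 0-100% survival scale.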

The test system of assay [3] is Lox (Melanoma). Put plainly: In vitro cytotoxicity, microculture tetrazolium (MTT) assay, LOX. Format: cell-based, Human. As to conditions: 48 h with compound, further 48 h, Table 1. An outline of the steps: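 LOX melanoma cells, 1,500–4,000 per well, exposed to compound (1:3 dilutions, 100 μM to 1.7 nM) for 48 h at 37° C., then 48 h in fresh medium. MTT reduction read at 570 nm; four-parameter logistic fit normalized to 0–100% survival.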

For assay [4], the system named is HT 29 (Colon adenocarcinoma). Kind of assay: In vitro cytotoxicity, microculture tetrazolium (MTT) assay, HT29. Format: cell-based, Human. As to conditions: further 48 h, Table 1. The procedure, abridged: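 HT29 cells exposed to compound (1:3 series, 100 μM to 1.7 nM, quadruplicate) for 48 h at 37 °C, then 48 h in fresh medium. Viability by MTT reduction, formazan absorbance at 570 nm; four-parameter logistic fit on 0-100% survival scale.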

Assay [5] deals with VLB/OV3. Put plainly: Resistance ratio of SKVLB over SKOV3 cytotoxicity (VLB/OV3). As to conditions: ratio SKVLB to SKOV3; Table 1; 2880 min. Type of assay: cell-based, Human. As for the experimental part:
(§1) The microculture tetrazolium assay was used to test in vitro cytotoxicity. This assay is described in Plumb, J. A. et al., 1989 Cancer Research 49, 4435-4440, which is herein incorporated by reference. The cytotoxicity of compounds towards tumor cells is measured in vitro using the assay. This assay method is based upon the ability of live, but not dead cells to reduce the yellow water soluble dye 3-(4,5-dimethylthiazol-2-yl)-2,5-diphenyltetrazolium bromide (MTT) to its water insoluble purple formazan product.
SKOV3 (Ovarian adenocarcinoma)--provided by Dr. V. Ling, Ontario Cancer Institute.
SKVLB (Ovarian; multidrug resistant)--Dr. V. Ling, Ontario Cancer Institute.
For each assay, doxorubicin is included as an inter-assay standard. This allows us to monitor the behaviour of the assay in general, and in particular, to check that the SKVLB line has maintained its resistant phenotype.
(§2) Cells are plated out in 100 μl of culture medium in the microtiter plates at a density of around 1,500-4,000 cells per well. The plates are incubated overnight to allow the cells to become adherent after which the test compound is added (100 μl of appropriate dilution per well). The cells are incubated with test compound at 37° C. for 48 h after which the compound is replaced with fresh medium. After a further 48 h incubation at 37° C., 50 μl of MTT solution (2 mg/ml) is added to each well. The plates are incubated in the dark for 4 h at 37° C. after which the medium is removed. The MTT formazan product is extracted from the cells by the addition of 200 μl DMSO followed by 50 μl of Sorensen's buffer. The plates are shaken briefly and the absorbance at 570 nm is read using a Molecular Devices UV max plate reader. Curves are fit to the MTT assay data using a four parameter logistic equation, and the data are normalized to fit a 0% to 100% survival scale.

Assay [6] concerns SKVLB (Ovarian; multidrug resistant). Put plainly: In vitro cytotoxicity, microculture tetrazolium (MTT) assay, SKVLB. To be noted: for IC50: SKVLB multidrug resistant ovarian, 48 h with compound, further 48 h, MTT, Table 1. Type of assay: cell-based, Human. The procedure, abridged:
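Multidrug-resistant SKVLB ovarian cells, 1,500–4,000 per well, exposed to compound (1:3 dilutions, 100 μM to 1.7 nM, quadruplicate) for 48 h at 37 °C, then 48 h in fresh medium. Viability by MTT reduction, formazan read at 570 nm; four-parameter logistic fit on a 0–100% survival scale.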

In assay [7] the test system is MCF-7. Put plainly: In vitro cytotoxicity, MCF-7. Type of assay: cell-based. As to conditions: breast cancer, MCF-7. The procedure: as §1
as §2, with “Curves are fit to the MTT assay data using a four parameter logistic equation, and the data are normalized to fit a 0% to 100% survival scale.” left out

In assay [8] the test system is MCF-7/ADR. Kind of assay: In vitro cytotoxicity, MCF-7/ADR. Type of assay: cell-based. As to conditions: breast cancer, MCF-7. The procedure: as §1
as §2, with “Curves are fit to the MTT assay data using a four parameter logistic equation, and the data are normalized to fit a 0% to 100% survival scale.” left out

For assay [9] the following is noted: literature; cited from earlier work.
Where [10] appears, read: Homo sapiens, HT-29, 48 h with compound.

For the molecule `CC(=O)C1CC2=C(C(=O)c3ccccc3C2=O)C(OC[C@@H]2CCCN2C(=O)OC(C)(C)C)O1` (mixture of isomers) [BCH2067, (1S, 2'S, 3R) and (1R, 2'S, 3S)-methyl-(1-[O-N-BOC-prolinol]-5,10-dioxo-3,4,5,10-tetrahydro-1-H-naphtho[2,3-C]pyran-3-yl) ketone], the 50% inhibitory concentration (IC50) in [1] (Homo sapiens, SK-OV-3) worked out at 1200 nM; in assay [2] (Homo sapiens), 540 nM; in [3] (Homo sapiens) it was 1100 nM; in [4] (setting [10]) it was 323 nM. In [5], the VLB/OV3 was 2.
Regarding `CC(=O)C1CC2=C(C(=O)c3ccccc3C2=O)C(OCC2CCCCN2)O1` (racemic) [BCH2069, Methyl-(1-O-[2'-piperidinemethanol]-5,10-dioxo-3,4,5,10-tetrahydronaphthaleno-[2,3-c]pyran-3-yl) ketone, racemic, hydrochloride], the IC50 was 49.4 nM in [1] (Homo sapiens, SK-OV-3); 83 to 483 nM in assay [6] (Homo sapiens); 1110 nM in assay [2] (Homo sapiens); 90.3 nM in assay [3] (Homo sapiens); 350 nM in [4] (setting [10]). Moreover, the VLB/OV3 in [5] is recorded as 2-9.78.
For the molecule `CO[C@@H]1O[C@@H](C(=O)Nc2ccccc2)CC2=C1C(=O)c1ccccc1C2=O` (relative stereo) [BCH2041, (1,3-trans)-anline-(1-methoxy-5,10-dioxo-3,4,5,10-tetrahydro-1H-naphtho-[2,3-c]-pyran)-3-carboxamide], the IC50 was found to be 2140 nM in assay [1] (Homo sapiens, SK-OV-3); 10000 nM in assay [6] (Homo sapiens); 5620 nM in [2] (Homo sapiens); 1900 nM in [3] (Homo sapiens); 1900 nM in [4] (setting [10]). Moreover, the VLB/OV3 in assay [5] is listed as 5.
As to `CO[C@@H]1O[C@@H](C(=O)O)CC2=C1C(=O)c1ccccc1C2=O` (relative stereo) [BCH2045, (1,3-trans)-1-methoxy-3-carboxyl-5,10-dioxo-3,4,5,10-tetrahydro-1H-naphtho-[2,3-c]-pyran], the concentration for half-maximal inhibition (IC50) was determined as 5300 nM in assay [1] (Homo sapiens, SK-OV-3); 15000 nM in [6] (Homo sapiens); 13000 nM in [2] (Homo sapiens); 4600 nM in [3] (Homo sapiens); 1110 nM in [4] (setting [10]). Besides, in assay [5], the VLB/OV3 was determined as 3.
`CC(=O)[C@H]1CC2=C(C(=O)c3ccccc3C2=O)[C@H](OC2C[C@H](NC(=O)C(F)(F)F)[C@H](O)[C@H](C)O2)O1` (stereo partly drawn) [BCH1146, (1'S,1S,3R)-Methyl (5,10-dioxo-1-(2',3',6'-trideoxy-3'-trifluoroacetamido-4'-hydroxy-L-lyxohexopyranose)-3,4,5,10-tetrahydronaphtho [2,3-C]pyran-3-yl) ketone]: the “potency relative to adriamycin” value in [7] is on record as “less potent than adriamycin”. Also, in assay [8], the “effect in sensitive versus adriamycin resistant cell line” value was “nearly as effective in the sensitive and adriamycin resistant cell line”.
On to `CC(=O)[C@@H]1CC2=C(C(=O)c3ccccc3C2=O)[C@@H](O[C@H]2C[C@H](NC(=O)C(F)(F)F)[C@H](O)[C@H](C)O2)O1` [BCH1184, (1'S,1R,3S)-Methyl (5,10-dioxo-1-(2',3',6'-trideoxy-3'-trifluoroacetamido-4'-hydroxy-L-lyxohexopyranose)-3,4,5,10-tetrahydronaphtho [2,3-C]pyran-3-yl) ketone], for which the IC50 in assay [1] (Homo sapiens, SK-OV-3) is 5 to 63.1 nM; in assay [6] (Homo sapiens), 53.6 to 300 nM; in [2] (Homo sapiens) it was 284 to 530 nM; in assay [3] (Homo sapiens) it was 18.6 to 228 nM; in assay [4] (setting [10]), 2.3 to 16.1 nM. For the same molecule, the VLB/OV3 in assay [5] is recorded as 4.75-22.34.
On to `CC[C@@H]1CC2=C(C(=O)c3ccccc3C2=O)[C@@H](O[C@H]2C[C@H](NC(=O)C(F)(F)F)[C@H](O)[C@H](C)O2)O1` [BCH2026, (1'S, 1R, 3R)-5,10-dioxo-3-ethyl-1-(2',3',6'-trideoxy-3'-trifluoroacetamido-L-lyxohexopyranose)-3,4,5,10-tetrahydro-1H-naphtho-[2,3-c]pyran], for which the IC50 in assay [1] (Homo sapiens, SK-OV-3) is 15000 nM; in [6] (Homo sapiens) it was > 100000 nM; in [2] (Homo sapiens), 31400 nM; in assay [3] (Homo sapiens), 2120 nM; in assay [4] (setting [10]), 22000 nM. Also, in [5], the VLB/OV3 was > 7.
As for `COC1OC(C(=O)NCCCN(C)C)=CC2=C1C(=O)c1ccccc1C2=O` (stereo not drawn) [BCH2051, 1-Methoxy-5,10-dioxo-5,10-dihydro-1H-naphtho[2,3-c]pyran-3-[N-(3-dimethylamino-propyl)carboxamide] hydrochloride monohydrate], the concentration for half-maximal inhibition (IC50) in assay [1] (Homo sapiens, SK-OV-3) is 7.3 to 29 nM; in [6] (Homo sapiens), 67.5 to 403 nM; in assay [2] (Homo sapiens) it was 41.9 to 68.5 nM; in assay [3] (Homo sapiens) it was 16.7 to 30 nM; in assay [4] (setting [10]), 91 to 134 nM. For the same molecule, the “in vitro antitumor potency” value in assay [1] (in vitro, Tables 1 and 2) is recorded as “intense in vitro antitumor potency”. In addition, in [6] (SKVLB cell line), the “multidrug resistance / effect in multidrug resistant cell line SKVLB” value was “significantly avoiding multidrug resistance”. The VLB/OV3 in assay [5] was 9.3-14.14.
As for `CC(C)[C@H]1CC2=C(C(=O)c3ccccc3C2=O)[C@H](O[C@H]2C[C@H](NC(=O)C(F)(F)F)[C@H](O)[C@H](C)O2)O1` [BCH2052, (1'S, 1S, 3R)-5,10-dioxo-3-isopropyl-1-(2',3',6'-trideoxy-3'-trifluoroacetamido-L-lyxohexopyranose)-3,4,5,10-tetrahydro-1H-naphtho-[2,3-c]-pyran], the IC50 in [1] (Homo sapiens, SK-OV-3) was in the range of 5400 to 7010 nM; in assay [6] (Homo sapiens) it was 20500 to 28200 nM; in assay [2] (Homo sapiens), 9540 to 23300 nM; in [3] (Homo sapiens), 3040 to 3220 nM; in [4] (setting [10]), 10600 to 15400 nM. For the same molecule, in assay [5], the VLB/OV3 is 3.78-4.02.
Turning to `CO[C@H]1C[C@H](O[C@@H]2O[C@@H](C(C)=O)CC3=C2C(=O)c2ccccc2C3=O)O[C@@H](C)[C@H]1OS(C)(=O)=O` [BCH2072, (1'-S, 1'S, 3-R)-methyl-(1-[2',3',4',6' tetradeoxy-3'-methoxy-4'-O-methanesulfonyl-L-lyxohexopyranose)-5,10-dioxo-3,4,5,10 tetrahydronaphtho-[2,3-c]pyran-3-yl) ketone], the IC50 in [1] (Homo sapiens, SK-OV-3) is 64.1 to 113 nM; in assay [6] (Homo sapiens) it was 315 to 991 nM; in [2] (Homo sapiens), 23.6 to 350 nM; in assay [3] (Homo sapiens), 102 nM; in assay [4] (setting [10]), 53.9 to 101 nM. In addition, the VLB/OV3 in assay [5] is recorded as 2.79-15.46.
For `CC(=NO)[C@@H]1CC2=C(C(=O)c3ccccc3C2=O)[C@@H](O[C@H]2C[C@H](NC(=O)C(F)(F)F)[C@H](O)[C@H](C)O2)O1` [BCH2115, (1'S, 1R, 3S)-3 (oximoethyl)-5,10-dioxo-1 (2,3,6-trideoxy-3-trifluoroacetamido-L-lyxohexopyranose)-3,4,5,10-tetrahydro-1H-naphtho-(2,3-c)-pyran], the IC50 was 2300 nM in [1], 5300 nM in assay [2], 4000 nM in assay [3] and 5600 nM in [4] (48 h with compound). Further, the VLB/OV3 in [5] is > 50.
For `CC1OC2OC(=O)OC2C2=C1C(=O)c1c(O)cccc1C2=O` (stereo not drawn) [kalafungin], the “antibacterial as well as antifungal activity” value in assay [9] was “potent antibacterial as well as antifungal activity”.
With “(1S, 2'S, 3R) and (1R, 2'S, 3S)-methyl-(1-[O-prolinol]-3,4,5,12-tetrahydronaphtho-[2,3-C]pyran-3-yl) ketone hydrochloride salt [BCH1658]”, the IC50 was found to be 233 nM in [1]; 1470 nM in assay [6]; 494 nM in [2]; 316 nM in assay [3]; 661 nM in [4] (48 h with compound). Besides, in assay [5], the VLB/OV3 came out at 6.31.

As a reminder, the IC50 is the point on the concentration scale where inhibition reaches its midpoint.
